IC50 data for 1 compound are collected here from BindingDB's records for patent US20240209019 (Ardelyx, 2024).

The assay addresses T1, 11-beta-hydroxysteroid dehydrogenase type 2 (Homo sapiens, UniProt P80365).
T1 sequence (P80365 whole entry): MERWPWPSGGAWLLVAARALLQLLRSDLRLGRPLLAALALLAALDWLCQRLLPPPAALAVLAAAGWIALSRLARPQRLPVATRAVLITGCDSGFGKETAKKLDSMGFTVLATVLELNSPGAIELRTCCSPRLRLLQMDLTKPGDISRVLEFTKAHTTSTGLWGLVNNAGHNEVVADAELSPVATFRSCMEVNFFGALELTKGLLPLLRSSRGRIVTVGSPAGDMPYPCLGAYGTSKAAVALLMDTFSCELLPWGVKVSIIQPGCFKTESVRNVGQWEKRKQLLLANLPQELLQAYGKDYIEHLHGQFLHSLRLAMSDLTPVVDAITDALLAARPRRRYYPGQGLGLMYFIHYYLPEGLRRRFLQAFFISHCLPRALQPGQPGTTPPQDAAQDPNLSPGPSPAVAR
In words: HSD2 Activity. On the procedure:
Compounds were diluted in DMSO and serial dilutions prepared by titrating in DMSO. Compounds were then diluted into DMEM/F12. Transwell plates containing descending colon cultures were washed twice with DMEM/F12 and compound was added to the apical compartment. Cells were incubated with test compound for 30 minutes at 37° C., 5% CO2 to equilibrate across the cell membrane. A second compound plate was prepared in which the serially diluted compounds in DMSO were diluted into DMEM/F12 containing 40 nM cortisol. Following the 30 minute pre-incubation step, the apical media was aspirated and compounds diluted in DMEM/F12 with 40 nM cortisol were added to the apical side of the transwell. The plate was then incubated for four hours at 37° C., 5% CO2. Cortisol levels were measured using a cortisol HTRF assay kit as described by the manufacturer (Cisbio).

For orientation: IC50 means the concentration that inhibits the measured activity by half. A high value points to lower potency.

Where only a bound is given, the exact number is not on record here.

The compound `CCCOCCOCCOCCOC(=O)O[C@H]1CC[C@@]2(C)[C@@H](CC[C@]3(C)[C@@H]2C(=O)C=C2[C@@H]4C[C@@](C)(C(=O)O)CC[C@]4(C)CC[C@]23C)[C@]1(C)C(=O)O` [US20240209019, Compound noid16] came in with an IC50 greater than 10 µM.
